Reference: patent EP2487185A1, “Hexapeptide with improved activity in the repair of cellular DNA of dermal cells” (Clinuvel Pharmaceuticals Limited, priority 2011, dated 2012)
Non-standard residues stand in square brackets, D forms with d. Nle = CCCC[C@H](N)C(=O)O

Assays:
Type in all cases: cell-based, human
strains 1505b and 1513c = test: Cell proliferation as a measure of stability, overall; settings: all experiments on both strains 1505b and 1513c
Description: With continued reference to Figs. 7, 8 and 9, to determine the stability of CUV9900 versus that of NDP-MSH and α-MSH, melanocytes were treated with 1 nM of each peptide, namely with CUV9900, NDP-MSH and α-MSH, for a total of 6 days, or with 1 nM peptides that were incubated for 5 hours at 37 °C prior to addition to the cultures, every other day, for a total of 6 days. Tyrosinase activity was measured at the end of treatment. In the experiments, cell number represents the mean percent of control of 3 determinations/ group ±SE, and tyrosinase activity data represent the mean percent of control of 6 determinations ±S.E. It should be noted that for the sake of reproducibility the experiment of strain 1513c of Fig. 9 was performed once more 6 months later than the experiment of Fig. 7.
Peptides were incubated at 37 degrees Celsius for 5 hours and then split into groups. Cell proliferation was a measure of stability, whereby the experiments on strain 1513c were divided in period 1 and 2 under standard conditions.

melanocyte strain 1505b = test: Tyrosinase activity, dose-response, 6 days treatment
Description: Dose-response experiments were carried out on another adult strain 102b which is shown in Fig. 6 and on the strain 1505b which is a melanocyte strain: melanocytes were treated with 0.001-10 nM CUV9990 or NDP-MSH, or 0.1-10 nM MSH for a total of 6 days, with the culture medium changed and fresh peptide added every other day. Cell numbers as well as tyrosinase activity were then determined. Tyrosinase activity was calculated first at activity/10^6 cells, and then as % of control. Twenty-four hours prior the end of the experiment, melanocytes received ^3H-tyrosinase (0.7 µCi/ml medium). The conditioned medium from each dish was collected to be assayed for tyrosinase activity, and the cell numbers were determined using a Coulter Counter. Triplicate dishes were included in each group, and duplicate samples from each dish were assayed for tyrosinase activity. Each data point is the mean percent of control of 6 determinations/group ±S.E.

[1] = test system: lightly pigmented strain 1563c and strain 102b; test: Ultrastructural visualization of DOPA-stained HM (electron microscopy); settings: 0.1 nM or 1 nM CUV9900 or 1 nM MSH; strains 1563c and 102b
Description: With reference to Figs. 14 and 15, two melanocytic strains, a lightly pigmented strain 1563c of Fig. 14 and strain 102b of Fig. 15 were plated in 4-well chamber slides and treated […] with either 0.1 nM or 1 nM CUV9900 or 1 nM MSH for a total of 6 days. Cells were processed for electron microscopy in the presence or absence of histochemical reaction with DOPA. Microtome sections were analyzed in a JEOL JEM-1230 transmission electron microscope and photomicrographs (15,000 X) of the perinuclear area and dendrites were taken for each experimental group.

melanocytes strain 1505b = test: cAMP levels (125I radioimmunoassay), dose-response; settings: at 1 nM, 45 min, 0.1 mM IBMX
Description: (§1) Dose-response experiments were carried out on three melanocytic strains, namely strains 1513c, 1505b and 105c melanocytes were treated with 1 pM-10 nM CUV9900 or NDP-MSH, or with 0.1-10 nM MSH for 45 minutes in the presence of 0.1 mM isobutyl methylxanthine (IBMX). The results obtained from strain 1513c are shown in Fig. 3, the results obtained from strain 1505b are shown in Fig. 5a and the results obtained from strain 105c are shown in Fig. 5b. The strains 1505b and 1513c were obtained from the same human adult while the strain 105c was obtained from another human adult. Cyclic AMP is the second messenger for the melanocortin-1 receptor, and assessment is usually performed indicating cellular activity reflective of melanogenesis. Cyclic AMP levels were determined using ^125I-labeled radioimmunoassay kit (Perkin Elmer, Waltham, MA), in human melanocytes that were treated with 0 (control), 0.1-10.0 nM α-MSH, or 0.001-10 nM NDP-MSH or 0.001-10.0 nM CUV 9900 for 45 min. in the presence of 0.1 mM IBMX, a phosphodiesterase inhibitor to prevent cAMP degradation. Triplicate wells were included in each group, and duplicate samples from each well were assayed for cAMP levels. Each data point is the mean percent of control of 6 determinations/group ±S.E.

melanocytes strain 105c = test: cAMP levels (125I radioimmunoassay), dose-response; settings: 45 min, 0.1 mM IBMX
Description: as §1

- effect on tyrosinase activity, comparison with NDP-MSH (melanocyte strain 1505b): equivalent to that of NDP-MSH
- minimal effective dose (tyrosinase activity) (melanocyte strain 1505b; 6 days treatment): 1 pM
Substance: Ac-Nle-Glu His-D-Phe-Arg-Trp-NH2 (Ac-[Nle]EH[dF]RW-NH2; SMILES CCCC[C@H](NC(C)=O)C(=O)N[C@@H](CCC(=O)O)C(=O)N[C@@H](Cc1c[nH]cn1)C(=O)N[C@H](Cc1ccccc1)C(=O)N[C@@H](CCCNC(=N)N)C(=O)N[C@@H](Cc1c[nH]c2ccccc12)C(N)=O) [CUV9900, hexapeptide, alpha-MSH analogue]
- more cell proliferation and stability than MSH (strains 1505b and 1513c): 2.9%
- more cell proliferation and stability than NDP-MSH (strains 1505b and 1513c): 4.0%
- melanosomes, electron microscopy [1]: increased mature (stage IV) melanosomes in the perinuclear area and more so in dendrites
- cAMP, potency comparison (melanocytes strain 1505b): more potent than MSH
- elevation of cAMP, comparison with NDP (melanocytes strain 105c; 0.01 nM and 0.1 nM): less elevation of cAMP in comparison to 0.01 nM and 0.1 nM NDP
- cAMP, comparison with MSH (melanocytes strain 105c; 0.1 nM, 1 nM and 10 nM): significantly higher than 0.1 nM, 1 nM and 10 nM MSH
